In patent publication US8029764B2, “Methods for detection of colorectal cancer” (The Johns Hopkins University, priority 2001, dated 2011):

Tested on: colorectal tissue transcripts
Assay: SAGE of normal, adenoma and cancer colorectal tissue (transcript tag counts)
Parameters: species or system human
Conditions: for AD1 (SAGE tag count): SAGE library AD1; for AD2 (SAGE tag count): SAGE library AD2; for CA1 (SAGE tag count): SAGE library CA1; for CA2 (SAGE tag count): SAGE library CA2; for NC1 (SAGE tag count): SAGE library NC1; for NC2 (SAGE tag count): SAGE library NC2
Text: In an effort to identify potential molecular markers of early colorectal tumors, we have here analyzed gene expression in benign and malignant colorectal tumors in an unbiased and comprehensive fashion. We used SAGE to analyze global gene expression in normal, benign and malignant colorectal tissue. SAGE is a gene expression profiling method that associates individual mRNA transcripts with 15-base tags derived from specific positions near their 3′ termini (3). The abundance of each tag provides a quantitative measure of the transcript level present within the mRNA population studied. SAGE is not dependent on pre-existing databases of expressed genes, and therefore provides an unbiased view of gene expression profiles. For the current study, SAGE libraries derived from two samples of normal colonic epithelium, two colorectal adenomas, and two colorectal cancers were analyzed.
SAGE. For the initial SAGE^3 of benign tumors, fresh adenomas were obtained from surgical specimens derived from FAP patients. Adenomas from FAP patients were employed because of the ready availability of small lesions and the certainty of inactivation of the APC pathway which initiates the formation of the majority of sporadic tumors. After histopathological verification of the neoplastic nature of the lesion (>70% neoplastic cells), total RNA was isolated by solubilizing the tissue in RNAgents Lysis Buffer (Promega, Madison, Wis.) followed by ultracentrifugation over a cesium chloride gradient. mRNA selection was performed from the purified total RNA using oligo(dT) cellulose (Life Technologies, Gaithersburg, Md.). […] Tags were extracted from the raw sequence data and, after excluding repeated ditags, linker sequences, and tags from the polyrnorphic Major Histocompatibility loci, the resulting tag libraries were compared and statistical analysis performed using SAGE software, version 4.0. Data from the libraries are publicly available at the Uniform Resource Locator (URL) address for the http file type found on the www host server that has a domain name of ncbi.nlm.nih.gov, and a path to the directory SAGE, and detailed SAGE protocols are available at the Uniform Resource Locator (URL) address for the http file type found on the www host server that has a domain name of sagenet.org, and file name of sage_protocol.htn.

ATGCGGAGTC (chemistry not fully specified)
AD1 (SAGE tag count): 5
AD2 (SAGE tag count): 3
CA1 (SAGE tag count): 2
CA2 (SAGE tag count): 4
NC1 (SAGE tag count): 14
NC2 (SAGE tag count): 13

ATGCGGGAGA (chemistry not fully specified)
AD1 (SAGE tag count): 15
AD2 (SAGE tag count): 22
CA1 (SAGE tag count): 5
CA2 (SAGE tag count): 6
NC1 (SAGE tag count): 38
NC2 (SAGE tag count): 39

ATGGCACGGA (chemistry not fully specified; the letters are possibly those of the target site)
AD1 (SAGE tag count): 1
AD2 (SAGE tag count): 1
CA1 (SAGE tag count): 3
CA2 (SAGE tag count): 0
NC1 (SAGE tag count): 6
NC2 (SAGE tag count): 21

ATGGTCTACG (chemistry not fully specified)
AD1 (SAGE tag count): 0
AD2 (SAGE tag count): 0
CA1 (SAGE tag count): 1
CA2 (SAGE tag count): 0
NC1 (SAGE tag count): 10
NC2 (SAGE tag count): 5

ATGGTGGGGG (chemistry not fully specified)
AD1 (SAGE tag count): 11
AD2 (SAGE tag count): 9
CA1 (SAGE tag count): 1
CA2 (SAGE tag count): 2
NC1 (SAGE tag count): 25
NC2 (SAGE tag count): 30

ATGTGCGTGG (chemistry not fully specified)
AD1 (SAGE tag count): 11
AD2 (SAGE tag count): 3
CA1 (SAGE tag count): 7
CA2 (SAGE tag count): 7
NC1 (SAGE tag count): 38
NC2 (SAGE tag count): 8

ATGTGGGCTC (chemistry not fully specified)
AD1 (SAGE tag count): 0
AD2 (SAGE tag count): 0
CA1 (SAGE tag count): 0
CA2 (SAGE tag count): 0
NC1 (SAGE tag count): 7
NC2 (SAGE tag count): 2

ATTGGAGTGC (chemistry not fully specified)
AD1 (SAGE tag count): 15
AD2 (SAGE tag count): 36
CA1 (SAGE tag count): 37
CA2 (SAGE tag count): 19
NC1 (SAGE tag count): 136
NC2 (SAGE tag count): 85

ATTTCAAGAT (chemistry not fully specified)
AD1 (SAGE tag count): 0
AD2 (SAGE tag count): 2
CA1 (SAGE tag count): 1
CA2 (SAGE tag count): 0
NC1 (SAGE tag count): 35
NC2 (SAGE tag count): 21

CAAATAAAAG (chemistry not fully specified)
AD1 (SAGE tag count): 2
AD2 (SAGE tag count): 0
CA1 (SAGE tag count): 1
CA2 (SAGE tag count): 1
NC1 (SAGE tag count): 9
NC2 (SAGE tag count): 12

CAAGAGTTTC (chemistry not fully specified)
AD1 (SAGE tag count): 0
AD2 (SAGE tag count): 0
CA1 (SAGE tag count): 0
CA2 (SAGE tag count): 0
NC1 (SAGE tag count): 14
NC2 (SAGE tag count): 2

CACCCCTGAT (chemistry not fully specified)
AD1 (SAGE tag count): 58
AD2 (SAGE tag count): 58
CA1 (SAGE tag count): 13
CA2 (SAGE tag count): 36
NC1 (SAGE tag count): 73
NC2 (SAGE tag count): 169

CAGTGCGTTC (chemistry not fully specified)
AD1 (SAGE tag count): 0
AD2 (SAGE tag count): 0
CA1 (SAGE tag count): 3
CA2 (SAGE tag count): 0
NC1 (SAGE tag count): 12
NC2 (SAGE tag count): 3

CATAGGTTTA (chemistry not fully specified)
AD1 (SAGE tag count): 4
AD2 (SAGE tag count): 1
CA1 (SAGE tag count): 5
CA2 (SAGE tag count): 0
NC1 (SAGE tag count): 66
NC2 (SAGE tag count): 39

CCAAAGCTAT (chemistry not fully specified)
AD1 (SAGE tag count): 14
AD2 (SAGE tag count): 12
CA1 (SAGE tag count): 6
CA2 (SAGE tag count): 11
NC1 (SAGE tag count): 42
NC2 (SAGE tag count): 16

CCAACACCAG (chemistry not fully specified)
AD1 (SAGE tag count): 1
AD2 (SAGE tag count): 0
CA1 (SAGE tag count): 0
CA2 (SAGE tag count): 1
NC1 (SAGE tag count): 9
NC2 (SAGE tag count): 19

CCACTGCACC (chemistry not fully specified)
AD1 (SAGE tag count): 5
AD2 (SAGE tag count): 5
CA1 (SAGE tag count): 6
CA2 (SAGE tag count): 14
NC1 (SAGE tag count): 21
NC2 (SAGE tag count): 19

CCAGGGGAGA (chemistry not fully specified)
AD1 (SAGE tag count): 24
AD2 (SAGE tag count): 22
CA1 (SAGE tag count): 10
CA2 (SAGE tag count): 20
NC1 (SAGE tag count): 45
NC2 (SAGE tag count): 66

CCATTCCACT (chemistry not fully specified)
AD1 (SAGE tag count): 2
AD2 (SAGE tag count): 0
CA1 (SAGE tag count): 0
CA2 (SAGE tag count): 0
NC1 (SAGE tag count): 13
NC2 (SAGE tag count): 1

CCCAACGCGC (chemistry not fully specified)
AD1 (SAGE tag count): 3
AD2 (SAGE tag count): 5
CA1 (SAGE tag count): 0
CA2 (SAGE tag count): 2
NC1 (SAGE tag count): 106
NC2 (SAGE tag count): 1

CCCCCGAAGC (chemistry not fully specified)
AD1 (SAGE tag count): 3
AD2 (SAGE tag count): 15
CA1 (SAGE tag count): 4
CA2 (SAGE tag count): 8
NC1 (SAGE tag count): 25
NC2 (SAGE tag count): 27

CCCCCGCGGA (chemistry not fully specified)
AD1 (SAGE tag count): 6
AD2 (SAGE tag count): 11
CA1 (SAGE tag count): 4
CA2 (SAGE tag count): 12
NC1 (SAGE tag count): 33
NC2 (SAGE tag count): 25

CCCCCTGCAT (chemistry not fully specified)
AD1 (SAGE tag count): 0
AD2 (SAGE tag count): 0
CA1 (SAGE tag count): 0
CA2 (SAGE tag count): 0
NC1 (SAGE tag count): 5
NC2 (SAGE tag count): 4

CCCGCCTCTT (chemistry not fully specified)
AD1 (SAGE tag count): 3
AD2 (SAGE tag count): 3
CA1 (SAGE tag count): 16
CA2 (SAGE tag count): 1
NC1 (SAGE tag count): 0
NC2 (SAGE tag count): 40

CCCTCCCGAA (chemistry not fully specified)
AD1 (SAGE tag count): 9
AD2 (SAGE tag count): 14
CA1 (SAGE tag count): 18
CA2 (SAGE tag count): 7
NC1 (SAGE tag count): 89
NC2 (SAGE tag count): 54

CCGCTGCACT (chemistry not fully specified)
AD1 (SAGE tag count): 55
AD2 (SAGE tag count): 46
CA1 (SAGE tag count): 37
CA2 (SAGE tag count): 30
NC1 (SAGE tag count): 127
NC2 (SAGE tag count): 102

CCGGCTTGAG (chemistry not fully specified)
AD1 (SAGE tag count): 0
AD2 (SAGE tag count): 0
CA1 (SAGE tag count): 0
CA2 (SAGE tag count): 0
NC1 (SAGE tag count): 7
NC2 (SAGE tag count): 4

CCTCCAGCTA (chemistry not fully specified)
AD1 (SAGE tag count): 142
AD2 (SAGE tag count): 125
CA1 (SAGE tag count): 131
CA2 (SAGE tag count): 147
NC1 (SAGE tag count): 715
NC2 (SAGE tag count): 458

CCTCCAGTAC (chemistry not fully specified)
AD1 (SAGE tag count): 2
AD2 (SAGE tag count): 3
CA1 (SAGE tag count): 2
CA2 (SAGE tag count): 4
NC1 (SAGE tag count): 20
NC2 (SAGE tag count): 8

CCTGCCCCCC (chemistry not fully specified)
AD1 (SAGE tag count): 6
AD2 (SAGE tag count): 3
CA1 (SAGE tag count): 11
CA2 (SAGE tag count): 4
NC1 (SAGE tag count): 20
NC2 (SAGE tag count): 30

CCTGCTGCAG (chemistry not fully specified)
AD1 (SAGE tag count): 0
AD2 (SAGE tag count): 1
CA1 (SAGE tag count): 6
CA2 (SAGE tag count): 9
NC1 (SAGE tag count): 7
NC2 (SAGE tag count): 34

CCTGCTTGTC (chemistry not fully specified)
AD1 (SAGE tag count): 0
AD2 (SAGE tag count): 3
CA1 (SAGE tag count): 0
CA2 (SAGE tag count): 5
NC1 (SAGE tag count): 20
NC2 (SAGE tag count): 23

CCTGGAAGAG (chemistry not fully specified)
AD1 (SAGE tag count): 11
AD2 (SAGE tag count): 4
CA1 (SAGE tag count): 12
CA2 (SAGE tag count): 16
NC1 (SAGE tag count): 30
NC2 (SAGE tag count): 26

CCTGTCTGCC (chemistry not fully specified)
AD1 (SAGE tag count): 0
AD2 (SAGE tag count): 1
CA1 (SAGE tag count): 1
CA2 (SAGE tag count): 1
NC1 (SAGE tag count): 14
NC2 (SAGE tag count): 22
